Broadly, the Ki is the equilibrium dissociation constant of an inhibitor or competing ligand from its target.

The assay deals with T1, Recombinant Human Poly(ADP-Ribose)Polymerase (PARP), PARP-1 (Homo sapiens, UniProt P09874).
T1 construct: purchased Trevigen (Gaithersburg, Md.); host or cells: E. coli
Kind of assay: PARP1 assay (SPA/FlashPlate, [3H]-NAD+ incorporation into biotinylated histone H1). The assay is classed as biochemical. The settings on record: 1 nM PARP enzyme, 1.5 μM [3H]-NAD+, 200 nM biotinylated histone H1, 200 nM slDNA; Ki from inhibition curves at various substrate concentrations. As for the experimental part:
Nicotinamide[2,5′,8-3H]adenine dinucleotide and strepavidin SPA beads were obtained from Amersham Biosiences (UK). Recombinant Human Poly(ADP-Ribose)Polymerase (PARP), purified from E. coli and 6-Biotin-17-NAD^+, were obtained from Trevigen (Gaithersburg, Md.). NAD^+, histone, aminobenzamide, 3-aminobenzamide and Calf Thymus DNA (dcDNA) were obtained from Sigma (St. Louis, Mo.). Stem loop oligonucleotide containing MCAT sequence was obtained from Qiagen. The oligos were dissolved to 1 mM in annealing buffer containing 10 mM Tris HCl (pH 7.5), 1 mM EDTA, and 50 mM NaCl, incubated for 5 minutes at 95° C. and annealed at 45° C. for 45 minutes. Histone H1 (95% electrophoretically pure) was obtained from Roche (Indianapolis, Ind. Biotinylated histone H1 was prepared by treating the protein with Sulfo-NHS-LC-Biotin (Pierce Rockford, Ill.). The biotinylation reaction was conducted by slowly and intermittently adding 3 equivalents of 10 mM Sulfo-NHS-LC-Biotin to 100 μM Histone H1 in phosphate-buffered saline, pH 7.5, at 4° C. with gentle vortexing over 1 minute then incubation at 4° C. for 1 hour. Streptavidin coated (FlashPlate Plus) microplates were obtained from Perkin Elmer (Boston, Mass.).
PARP1 assay was conducted in PARP assay buffer containing 50 mM tris (pH 8.0), 1 mM DTT and 4 mM MgCl2. PARP reactions contained 1.5 μM [^3H]-NAD^+ (1.6 μCi/mmol), 200 nM biotinylated histone H1, 200 nM slDNA, and 1 nM PARP enzyme. Auto reactions utilizing SPA bead-based detection were carried out in 100 μL volumes in white 96 well plates.
Reactions were initiated by adding 50 μL of 2×NAD^+ substrate mixture to 50 μL of 2× enzyme mixture containing PARP and DNA. These reactions were terminated by the addition of 150 μL of 1.5 mM benzamide (1000-fold over its IC50). 170 μL of the stopped reaction mixtures were transferred to streptavidin Flash Plates, incubated for 1 hour and counted using a TopCount microplate scintillation counter. The Ki data (in nM) for representative compounds of this invention were determined from inhibition curves at various substrate concentrations and are shown in TABLE 1.

T1 sequence (P09874 whole entry): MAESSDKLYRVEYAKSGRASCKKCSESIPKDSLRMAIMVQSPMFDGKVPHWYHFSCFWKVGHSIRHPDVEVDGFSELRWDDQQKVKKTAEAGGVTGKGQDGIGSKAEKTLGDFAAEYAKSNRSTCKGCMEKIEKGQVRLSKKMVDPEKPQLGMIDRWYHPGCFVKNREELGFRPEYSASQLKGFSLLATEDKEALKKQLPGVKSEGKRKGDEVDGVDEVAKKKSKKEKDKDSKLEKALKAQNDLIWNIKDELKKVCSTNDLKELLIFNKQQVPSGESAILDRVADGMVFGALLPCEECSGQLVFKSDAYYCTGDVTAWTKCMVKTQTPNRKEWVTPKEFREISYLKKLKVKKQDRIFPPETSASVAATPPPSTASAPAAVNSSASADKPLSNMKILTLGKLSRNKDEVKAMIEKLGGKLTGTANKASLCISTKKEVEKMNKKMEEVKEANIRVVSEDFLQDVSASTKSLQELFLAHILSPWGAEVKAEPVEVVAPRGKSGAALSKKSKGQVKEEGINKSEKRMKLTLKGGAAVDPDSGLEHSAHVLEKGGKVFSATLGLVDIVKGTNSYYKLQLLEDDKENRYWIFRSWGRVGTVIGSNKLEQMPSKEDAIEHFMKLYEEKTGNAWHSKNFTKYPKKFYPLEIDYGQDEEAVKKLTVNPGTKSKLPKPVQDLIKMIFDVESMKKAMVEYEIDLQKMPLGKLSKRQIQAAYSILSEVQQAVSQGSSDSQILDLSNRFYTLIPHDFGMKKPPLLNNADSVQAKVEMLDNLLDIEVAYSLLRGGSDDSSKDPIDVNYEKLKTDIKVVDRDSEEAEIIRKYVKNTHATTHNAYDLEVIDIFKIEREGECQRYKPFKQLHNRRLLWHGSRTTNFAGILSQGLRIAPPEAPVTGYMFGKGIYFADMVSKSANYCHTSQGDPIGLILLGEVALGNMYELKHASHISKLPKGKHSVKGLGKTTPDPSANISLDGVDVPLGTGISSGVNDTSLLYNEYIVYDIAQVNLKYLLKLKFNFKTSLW

Consider `NC(=O)c1cccc2[nH]c(-c3ccc(C4CCCN4C4CCCC4)s3)nc12` (stereo not drawn) [Example 41, 2-(5-(1-cyclopentylpyrrolidin-2-yl)thien-2-yl)-1H-benzimidazole-4-carboxamide], for which the Ki is 5 nM. `Cc1nc(-c2cnccn2)sc1-c1nc2c(C(N)=O)cccc2[nH]1` [Example 3, 2-(4-methyl-2-pyrazin-2-yl-1,3-thiazol-5-yl)-H-benzimidazole-4-carboxamide]: the Ki was found to be 28 nM. For `NC(=O)c1cccc2[nH]c(-c3ccc([C@H]4CCCN4Cc4ccncc4)s3)nc12` [Example 26, 2-(5-((2R)-1-(pyridin-4-ylmethyl)pyrrolidin-2-yl)thien-2-yl)-1H-benzimidazole-4-carboxamide], the inhibition constant (Ki) stood at 6 nM. For `NC(=O)c1cccc2[nH]c(-c3ccc(C4CCCN4)s3)nc12` (stereo not drawn) [Example 34, 2-(5-pyrrolidin-2-ylthien-2-yl)-1H-benzimidazole-4-carboxamide], the Ki was found to be 7 nM.

Regarding `NC(=O)c1cccc2[nH]c(-c3csc(-c4cccs4)n3)nc12` [Example 4, 2-(2-thien-2-yl-1,3-thiazol-4-yl)-1H-benzimidazole-4-carboxamide], the Ki was determined as 20.9 nM. In the case of `NC(=O)c1cccc2[nH]c(-c3ccc(C4CCCN4C4CCC4)s3)nc12` (stereo not drawn) [Example 40, 2-(5-(1-cyclobutylpyrrolidin-2-yl)thien-2-yl)-1H-benzimidazole-4-carboxamide] it was 10 nM. In the case of `NC(=O)c1cccc2[nH]c(-c3ccc(C4CCCCN4C4CCC4)s3)nc12` (stereo not drawn) [Example 32, 2-(5-(1-cyclobutylpiperidin-2-yl)thien-2-yl)-1H-benzimidazole-4-carboxamide] it was 23 nM; in that of `NC(=O)c1cccc2[nH]c(-c3csc(C4CCN(C5CCC5)CC4)n3)nc12` [Example 9, 2-(2-(1-cyclobutylpiperidin-4-yl)-1,3-thiazol-4-yl)-1H-benzimidazole-4-carboxamide], 44 nM; in that of `NC(=O)c1cccc2[nH]c(-c3ccc(C4CCCN4C4CCCCC4)s3)nc12` (stereo not drawn) [Example 42, 2-(5-(1-cyclohexylpyrrolidin-2-yl)thien-2-yl)-1H-benzimidazole-4-carboxamide], 12 nM. Consider `NC(=O)c1cccc2[nH]c(-c3ccc(-c4ccc[nH]4)s3)nc12` [Example 15, 2-(5-(1H-pyrrol-2-yl)thien-2-yl)-1H-benzimidazole-4-carboxamide], for which the Ki stood at 5 nM. For the molecule `NC(=O)c1cccc2[nH]c(-c3csc(-c4ccncc4)n3)nc12` [Example 2], the Ki stood at 11.8 nM. Regarding `CC(C)N1CCC[C@@H]1c1ccc(-c2nc3c(C(N)=O)cccc3[nH]2)s1` [Example 18, 2-(5-((2R)-1-isopropylpyrrolidin-2-yl)thien-2-yl)-1H-benzimidazole-4-carboxamide], the inhibition constant Ki was 6 nM. Consider `CC(C)N1CCCC1c1ccc(-c2nc3c(C(N)=O)cccc3[nH]2)cn1` (stereo not drawn) [Example 44, 2-[6-(1-isopropylpyrrolidin-2-yl)pyridin-3-yl]-1H-benzimidazole-4-carboxamide], for which the inhibition constant (Ki) turned out to be 41 nM.

As to `CCCN1CCCCC1c1ccc(-c2nc3c(C(N)=O)cccc3[nH]2)s1` (stereo not drawn) [Example 30, 2-(5-(1-propylpiperidin-2-yl)thien-2-yl)-1H-benzimidazole-4-carboxamide], the Ki turned out to be 16 nM. As for `NC(=O)c1cccc2[nH]c(-c3ccc([C@H]4CCCN4Cc4ccccn4)s3)nc12` [Example 25, 2-(5-((2R)-1-(pyridin-2-ylmethyl)pyrrolidin-2-yl)thien-2-yl)-1H-benzimidazole-4-carboxamide], the Ki worked out at 10 nM. As to `NC(=O)c1cccc2[nH]c(-c3ccc([C@H]4CCCN4C4CCCC4)s3)nc12` [Example 22, 2-(5-((2R)-1-cyclopentylpyrrolidin-2-yl)thien-2-yl)-1H-benzimidazole-4-carboxamide], the inhibition constant Ki was found to be 3 nM. As to `NC(=O)c1cccc2[nH]c(-c3csc(-c4cccnc4)n3)nc12` [Example 1], the Ki came out at 14.5 nM. Consider `NC(=O)c1cccc2[nH]c(-c3csc(C4CCNCC4)n3)nc12` [Example 5, 2-(2-piperidin-4-yl-1,3-thiazol-4-yl)-1H-benzimidazole-4-carboxamide], for which the Ki was found to be 32 nM. As for `NC(=O)c1cccc2[nH]c(-c3ccc(-c4nnco4)cn3)nc12` [Example 51, 2-[5-(1,3,4-oxadiazol-2-yl)pyridin-2-yl]-1H-benzimidazole-4-carboxamide], the Ki was 1.8 nM. As for `NC(=O)c1cccc2[nH]c(-c3ccc(C4CCCN4C4CCC4)nc3)nc12` (stereo not drawn) [Example 46, 2-[6-(1-cyclobutylpyrrolidin-2-yl),pyridin-3-yl]-1H-benzimidazole-4-carboxamide], the inhibition constant Ki was found to be 17 nM. Turning to `NC(=O)c1cccc2[nH]c(-c3ccc(C4CCCN4C4CCCCC4)nc3)nc12` (stereo not drawn) [Example 48, 2-[6-(1-cyclohexylpyrrolidin-2-yl),pyridin-3-yl]-1H-benzimidazole-4-carboxamide], the inhibitory constant (Ki) worked out at 14 nM.

Take `NC(=O)c1cccc2[nH]c(-c3ccc([C@H]4CCCN4C4CCC4)s3)nc12` [Example 21, 2-(5-((2R)-1-cyclobutylpyrrolidin-2-yl)thien-2-yl)-1H-benzimidazole-4-carboxamide]: the Ki is 4 nM. In the case of `NC(=O)c1cccc2[nH]c(-c3ccc(-c4cnccn4)s3)nc12` [Example 11, 2-(5-pyrazin-2-ylthien-2-yl)-1H-benzimidazole-4-carboxamide] it was 2 nM; in that of `NC(=O)c1cccc2[nH]c(-c3ccc(C4CCCCN4CC4CC4)s3)nc12` (stereo not drawn) [Example 31, 2-(5-(1-(cyclopropylmethyl)piperidin-2-yl)thien-2-yl)-1H-benzimidazole-4-carboxamide], 11 nM; in that of `NC(=O)c1cccc2[nH]c(-c3ccc(-c4ncccn4)s3)nc12` [Example 12, 2-(5-pyrimidin-2-ylthien-2-yl)-1H-benzimidazole-4-carboxamide], 9 nM.

Consider `NC(=O)c1cccc2[nH]c(-c3ccc([C@H]4CCCN4C4CCCCC4)s3)nc12` [Example 23, 2-(5-((2R)-1-cyclohexylpyrrolidin-2-yl)thien-2-yl)-1H-benzimidazole-4-carboxamide], for which the Ki came to 8 nM. For the molecule `NC(=O)c1cccc2[nH]c(-c3ccc(-c4nnc(C(F)(F)F)o4)cn3)nc12` [Example 52, 2-{5-[5-(trifluoromethyl)-1,3,4-oxadiazol-2-yl]pyridin-2-yl}-1H-benzimidazole-4-carboxamide], the Ki turned out to be 14 nM. As for `CN1CCCC1c1ccc(-c2nc3c(C(N)=O)cccc3[nH]2)s1` (stereo not drawn) [Example 35, 2-(5-(1-methylpyrrolidin-2-yl)thien-2-yl)-1H-benzimidazole-4-carboxamide], the figure is 7 nM; as for `CN1CCCCC1c1ccc(-c2nc3c(C(N)=O)cccc3[nH]2)s1` (stereo not drawn) [Example 29, 2-(5-(1-methylpiperidin-2-yl)thien-2-yl)-1H-benzimidazole-4-carboxamide], 14 nM; as for `NC(=O)c1cccc2[nH]c(-c3ccc(-c4ccncc4)s3)nc12` [Example 14, 2-(5-pyridin-4-ylthien-2-yl)-1H-benzimidazole-4-carboxamide], 3.2 nM.

For the molecule `CN1CCC[C@@H]1c1ccc(-c2nc3c(C(N)=O)cccc3[nH]2)s1` [Example 17, 2-(5-((2R)-1-methylpyrrolidin-2-yl)thien-2-yl)-1H-benzimidazole-4-carboxamide], the Ki was 10 nM.

In the case of `CC(C)N1CCCC1c1ccc(-c2nc3c(C(N)=O)cccc3[nH]2)s1` (stereo not drawn) [Example 36, 2-(5-(1-isopropylpyrrolidin-2-yl)thien-2-yl)-1H-benzimidazole-4-carboxamide], the Ki was found to be 5 nM. `CC(C)N1CCC(c2nc(-c3nc4c(C(N)=O)cccc4[nH]3)cs2)CC1` [Example 7, 2-(2-(1-isopropylpiperidin-4-yl)-1,3-thiazol-4-yl)-1H-benzimidazole-4-carboxamide]: the inhibition constant Ki amounted to 61 nM. Consider `CC(C)CN1CCCCC1c1ccc(-c2nc3c(C(N)=O)cccc3[nH]2)s1` (stereo not drawn) [Example 33, 2-(5-(1-isobutylpiperidin-2-yl)thien-2-yl)-1H-benzimidazole-4-carboxamide], for which the Ki stood at 21 nM. For the molecule `CC(C)CN1CCCC1c1ccc(-c2nc3c(C(N)=O)cccc3[nH]2)cn1` (stereo not drawn) [Example 45, 2-[6-(1-isobutylpyrrolidin-2-yl),pyridin-3-yl]-1H-benzimidazole-4-carboxamide], the Ki worked out at 11 nM. As to `NC(=O)c1cccc2[nH]c(-c3ccc([C@H]4CCCN4)s3)nc12` [Example 16, 2-(5-((2R)-pyrrolidin-2-yl)thien-2-yl)-1H-benzimidazole-4-carboxamide], the Ki is 6 nM.

For the origin of these results see US8067613B2 (Abbott Laboratories, priority 2007, dated 2011).
